The values below come from US9540371B2, “Substituted quinazolin-4(3H)-ones, pyrido[3,4-d]pyrimidin-4(3H)-ones, pyrido[3,2-d]pyrimidin-4(3H)-ones and pyrido[2,3-d]pyrimidin-4(3H)-ones as positive allosteric modulators of muscarinic acetycholine receptor M1” (Vanderbilt University, priority 2013, dated 2017).

A word on the EC50: it is the concentration needed to bring the measured effect to its halfway point.

This test deals with T1, mAChR M1 (UniProt P11229).
T1 sequence (P11229 1-460): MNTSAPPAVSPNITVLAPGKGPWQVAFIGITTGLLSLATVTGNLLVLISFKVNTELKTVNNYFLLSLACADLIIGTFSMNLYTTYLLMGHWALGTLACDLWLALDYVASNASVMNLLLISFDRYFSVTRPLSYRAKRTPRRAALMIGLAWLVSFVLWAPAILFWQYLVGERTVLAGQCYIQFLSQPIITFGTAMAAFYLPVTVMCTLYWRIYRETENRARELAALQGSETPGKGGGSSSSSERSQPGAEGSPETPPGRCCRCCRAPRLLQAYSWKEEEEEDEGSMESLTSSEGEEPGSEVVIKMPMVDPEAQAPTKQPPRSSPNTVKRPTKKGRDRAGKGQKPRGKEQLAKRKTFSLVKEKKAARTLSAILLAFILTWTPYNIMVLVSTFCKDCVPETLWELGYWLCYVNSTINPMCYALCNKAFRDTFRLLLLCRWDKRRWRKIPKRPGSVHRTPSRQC
Nature of the test: mAChR M1 cell-based functional assay (calcium mobilization, PAM mode). Conditions: calcium flux in CHO-K1 cells expressing mAChR M1; increase in the EC20 acetylcholine response; >10 μM estimated where no plateau but >20% increase in ACh response. An excerpt: Chinese hamster ovary (CHO-K1) cells stably expressing rat (r)M1 were purchased from the American Type Culture Collection and cultured according to their indicated protocol. CHO cells stably expressing human (h)M2, hM3, and hM5 were described previously (Levey, A. I., et al., J Neurosci. 1991, 11, 3218-3226.); hM1 and hM4 cDNAs were purchased from Missouri S&T cDNA Resource; rM4 cDNA was provided by T. I. Bonner (National Institutes of Health, Bethesda, Md.). rM2 and rM3 were cloned from a rat brain cDNA library and sequence verified. hM1, rM2, rM3, hM4, and rM4 cDNAs were used to stably transfect CHO-K1 cells purchased from the American Type Culture Collection using Lipofectamine® 2000 (Thermo Fisher Scientific Inc.). To make stable rM2, hM2, hM4, and rM4 cell lines for use in calcium mobilization assays, these cells also were stably transfected with a chimeric G-protein (Gqi5) (provided by B. R. Conklin, University of California, San Francisco) using Lipofectamine® 2000. rM1, hM1, rM3, hM3, rM5, and hM5 cells were grown in Ham's F-12 medium containing 10% heat-inactivated fetal bovine serum (FBS), 20 mM HEPES, and 50 μg/mL G418 sulfate. rM2-Gqi5, hM2-Gqi5, and hM4-Gqi5 cells were grown in the same medium also containing 500 μg/mL hygromycin B. Stable rM4-Gqi5 cells were grown in DMEM containing 10% heat-inactivated FBS, 20 mM HEPES, 400 μg/mL G418 sulfate, and 500 μg/mL hygromycin B.
For high throughput measurement of agonist-evoked increases in intracellular calcium, CHO-K1 cells stably expressing muscarinic receptors were plated in growth medium lacking G418 and hygromycin B at 15,000 cells/20 μL/well in Greiner 384-well black-walled, tissue culture (TC)-treated, clear-bottom plates (VWR). Cells were incubated overnight at 37° C. and 5% CO2. The next day, cells were washed using an ELX 405 (BioTek) with four washes (80 μL) of assay buffer then aspirated to 20 μL. Next, 20 μL of 16 μM Fluo-4/acetoxymethyl ester (Invitrogen, Carlsbad, Calif.) prepared as a 2.3 mM stock in DMSO and mixed in a 1:1 ratio with 10% (w/v) Pluronic F-127 and diluted in assay buffer was added to the wells and the cell plates were incubated for 50 min at 37° C. and 5% CO2. Dye was removed by washing with the ELX 405 (four 80 μL washes of assay buffer) then aspirated to 20 μL. Compound master plates were formatted in an 11 point CRC format (1:3 dilutions) in 100% DMSO with a starting concentration of 10 mM using the BRAVO liquid handler (Agilent). Test compound CRCs were then transferred to daughter plates (240 nL) using the Echo acoustic plate reformatter (Labcyte, Sunnyvale, Calif.) and then diluted into assay buffer (40 μL) to a 2× stock using a Thermo Fisher Combi (Thermo Fisher Scientific, Waltham, Mass.).
Calcium flux was measured using the Functional Drug Screening System (FDSS) 6000 (Hamamatsu Corporation, Tokyo, Japan) as an increase in the fluorescent static ratio. Compounds were applied to cells (20 μL, 2X) using the automated system of the FDSS 6000 at 4 s into the 300 s protocol and the data were collected at 1 Hz. At 144 s into the 300 s protocol, 10 μL of an EC20 concentration of the muscarinic receptor agonist acetylcholine was added (5X), followed by the addition of […] concentration of acetylcholine at the 230 s time point (5X). Agonist activity was analyzed as a concentration—dependent increase in calcium mobilization upon compound addition. Positive allosteric modulator activity was analyzed as a concentration-dependent increase in the EC20 acetylcholine response. Antagonist activity was analyzed as a concentration-dependent decrease in the EC80 acetylcholine response. Concentration-response curves were generated using a four -parameter logistical equation in XLFit curve fitting software (IDBS, Bridgewater, N.J.) for Excel (Microsoft, Redmond, Wash.) or Prism (GraphPad Software, Inc., San Diego, Calif.).
The calcium mobilization assay was also used to determine “efficacy”. […]

For `O=c1c2ncccc2ncn1Cc1ccc(-n2cccn2)cc1` [Compound B10], the EC50 was above 10 µM.
As to `Cn1cc(-c2ccc(Cn3cnc4cccnc4c3=O)cc2)cn1` [Compound B11], the EC50 was above 10 µM.
In the case of `Cn1cc(-c2ccc(Cn3cnc4ccccc4c3=O)cc2)cn1` [Compound B3], the EC50 is above 10 µM.
As for `Cn1cc(-c2ccc(Cn3cnc4cnccc4c3=O)cc2)cn1` [Compound B9], the EC50 is 4.9 µM.
Under `Cn1cc(-c2ccc(Cn3cnc4ncccc4c3=O)cc2)cn1` [Compound B6] stands above 10 µM; under `Cn1cc2c(-c3cc(F)c(Cn4cnc5cccnc5c4=O)c(F)c3)cccc2n1` [Compound B12], 3.6 µM.
As to `O=c1c2ccccc2ncn1Cc1ccc(-n2cccn2)cc1` [Compound B2], the EC50 is above 10 µM.
For the compound `O=c1c2cccnc2ncn1Cc1ccc(-n2cccn2)cc1` [Compound B5], the EC50 was above 10 µM.
As to `Cn1cc2c(-c3cc(F)c(Cn4cnc5cnccc5c4=O)c(F)c3)cccc2n1` [Compound B7, 3-(2,6-Difluoro-4-(2-Methyl-2H-Indazol-4-yl)Benzyl)Pyrido[3,4-D]Pyrimidin-4(3H)-one], the EC50 is 0.6 µM.
Turning to `O=c1c2ccncc2ncn1Cc1ccc(-n2cccn2)cc1` [Compound B8], the concentration giving a half-maximal response (EC50) is above 10 µM.
